Read-outs that look alike come from different tables or passages of the source.
Legend:
Type in all cases: cell-based
[1] = target: T1, NR2F6 (Homo sapiens, UniProt P10588); assay: NR2F6 agonist screening, Firefly signal cmpd/DMSO
T1 construct: expressed in transfected cells; also transient transfection
T1 sequence (P10588 1-404): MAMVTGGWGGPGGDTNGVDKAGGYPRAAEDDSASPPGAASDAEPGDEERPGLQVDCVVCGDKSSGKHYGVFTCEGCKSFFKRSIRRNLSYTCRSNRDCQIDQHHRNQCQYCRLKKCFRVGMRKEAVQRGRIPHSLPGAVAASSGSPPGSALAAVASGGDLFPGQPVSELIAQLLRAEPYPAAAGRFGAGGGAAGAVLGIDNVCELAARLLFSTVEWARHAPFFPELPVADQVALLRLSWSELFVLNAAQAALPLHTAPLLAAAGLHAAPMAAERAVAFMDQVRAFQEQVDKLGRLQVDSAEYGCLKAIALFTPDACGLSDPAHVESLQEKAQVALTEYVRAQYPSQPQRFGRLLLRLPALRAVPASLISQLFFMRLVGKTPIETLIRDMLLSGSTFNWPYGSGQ

[2] = test system: HEK293 pGL4; assay: Firefly_pGL signal, cmpd/DMSO (pGL4 control cells); settings: Homo sapiens
[3] = test system: Renilla; assay: Renilla signal in NR2F6 agonist screening, cmpd/DMSO; settings: Renilla, F4
[4] = target: T2, NR2F6 LBD (Homo sapiens, UniProt P10588); assay: NR2F6 LBD transient transfection; settings: LBD
T2 construct: expressed in transfected cells
T2 sequence (P10588 165-393 limits assumed): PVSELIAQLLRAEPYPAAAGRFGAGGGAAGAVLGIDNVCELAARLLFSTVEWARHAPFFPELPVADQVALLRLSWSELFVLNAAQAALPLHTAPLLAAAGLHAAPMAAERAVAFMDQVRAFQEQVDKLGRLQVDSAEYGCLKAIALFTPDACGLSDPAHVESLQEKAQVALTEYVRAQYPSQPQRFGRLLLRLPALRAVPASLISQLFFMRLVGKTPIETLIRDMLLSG
Procedure: FIGS. 27A and 27B show NR2F6 and LBD transient transfection, respectively, for Compound D28. Higher concentrations were excluded due to lower signal (tox effect). FIGS. 27C and 27D show NR2F6 and LBD transient transfection at different concentrations for different compounds. 9 compounds were tested on LBD transfected cells (40, 10, 2 and 0.5 μM, 4 replicates). FIGS. 27E and 27F show toxicity of Compound D28. 9 compounds were tested for cytotoxicity on LBD transfected cells (40, 10, 2 and 0.5 μM, 4 replicates). […] Cytotoxicity normalized to DMSO is shown in FIG. 27F (0% cytotoxicity corresponds to DMSO signal, 100%—zero signal).
FIGS. 34A and 34B show NR2F6 LBD transient transfection for Compound E21. 9 compounds were tested on LBD transfected cells (40, 10, 2 and 0.5 μM, 4 replicates). FIGS. 34C and 34D show NR2F6 and LBD transient transfection at different concentrations for different compounds. 9 compounds were tested on LBD transfected cells (40, 10, 2 and 0.5 μM, 4 replicates). […] Cytotoxicity normalized to DMSO is shown in FIG. 34D (0% cytotoxicity corresponds to DMSO signal, 100%—zero signal). All compounds were tested at 5, 10, 25 and 50 uM in duplicates. Dog PBMC (1×10^6 cells/mL) were activated by 10 ng/mL PMA+500 ng/mL ionomycin. Data were normalized to controls with (100%)/without (0%) PMA+ionomycin activation.
FIGS. 39A and 39B show NR2F6 LBD transient transfection for Compound F1. 9 compounds were tested on LBD transfected cells (40, 10, 2 and 0.5 μM, 4 replicates). FIGS. 39C and 39D show toxicity of NR2F6 LBD transient transfection. 9 compounds were tested for cytotoxicity on LBD transfected cells (40, 10, 2 and 0.5 μM, 4 replicates). Tox effect causes lower signal compared to DMSO. Cytotoxicity normalized to DMSO is shown in FIG. 39D (0% cytotoxicity corresponds to DMSO signal, 100%—zero signal).

[5] = HEK293, 0.5 uM, pGL4, read-out: Firefly pGL4, cmpd/DMSO (mean)
[6] = HEK293, 2 uM, pGL4, read-out: Firefly pGL4, cmpd/DMSO (mean)
[7] = HEK293, 10 uM, pGL4, read-out: Firefly pGL4, cmpd/DMSO (mean)
[8] = HEK293, 40 uM, pGL4, read-out: Firefly pGL4, cmpd/DMSO (mean)
[9] = HEK293, pGL4, 1% FBS, 0.5 uM, read-out: Firefly, pGL4, 1% FBS, cmpd/DMSO (mean)
[10] = HEK293, pGL4, 1% FBS, 2 uM, read-out: Firefly, pGL4, 1% FBS, cmpd/DMSO (mean)
[11] = HEK293, pGL4, 1% FBS, 10 uM, read-out: Firefly, pGL4, 1% FBS, cmpd/DMSO (mean)
[12] = HEK293, pGL4, 1% FBS, 40 uM, read-out: Firefly, pGL4, 1% FBS, cmpd/DMSO (mean)
[13] = HEK293, pGL4, 10% FBS, 0.5 uM, read-out: Firefly, pGL4, 10% FBS, cmpd/DMSO (mean)
[14] = HEK293, pGL4, 10% FBS, 2 uM, read-out: Firefly, pGL4, 10% FBS, cmpd/DMSO (mean)
[15] = HEK293, pGL4, 10% FBS, 10 uM, read-out: Firefly, pGL4, 10% FBS, cmpd/DMSO (mean)
[16] = HEK293, pGL4, 10% FBS, 40 uM, read-out: Firefly, pGL4, 10% FBS, cmpd/DMSO (mean)
[17] = read-out: Renilla, F4, cmpd/DMSO (mean)
[18] = 1% FBS, read-out: Renilla, F4, 1% FBS, cmpd/DMSO (mean)
[19] = 10% FBS, read-out: Renilla, F4, 10% FBS, cmpd/DMSO (mean)

`CCCCN[C@H]1CS(=O)(=O)C[C@@H]1S(=O)(=O)c1ccc(Cl)cc1` [Compound D119] was tested, and the “Firefly F4, cmpd/DMSO (mean)” value ([1]; 0.5 uM) was 0.9, the “Firefly F4, cmpd/DMSO (mean)” value ([1]; 2 uM) was 2.0 and the “Firefly F4, cmpd/DMSO (mean)” value ([1]; 10 uM) was 5.3. For the same compound, the “Firefly F4, cmpd/DMSO (mean)” value ([1]; 40 uM) was 0.6, the “F4, Firefly/Renilla for S/B(F4) > 3” value ([1]; 1% FBS, 10 uM) was 2.5 and the “Firefly, F4/pGL4 for S/B(F4) > 3” value ([1]; 1% FBS, 10 uM) was 1.9. For the same compound, the “F4, Firefly/Renilla for S/B(F4) > 3” value ([1]; 10% FBS, 10 uM) was 2.7, the “Firefly, F4/pGL4 for S/B(F4) > 3” value ([1]; 10% FBS, 10 uM) was 3.3 and the “Firefly, F4, 1% FBS, cmpd/DMSO (mean)” value ([1]; 1% FBS, 0.5 uM) was 1.5. For the same compound, the “Firefly, F4, 1% FBS, cmpd/DMSO (mean)” value ([1]; 1% FBS, 2 uM) was 1.8, the “Firefly, F4, 1% FBS, cmpd/DMSO (mean)” value ([1]; 1% FBS, 10 uM) was 4.4 and the “Firefly, F4, 1% FBS, cmpd/DMSO (mean)” value ([1]; 1% FBS, 40 uM) was 0.2. The “Firefly, F4, 10% FBS, cmpd/DMSO (mean)” value ([1]; 10% FBS, 0.5 uM) was 1.5, the “Firefly, F4, 10% FBS, cmpd/DMSO (mean)” value ([1]; 10% FBS, 2 uM) was 1.1 and the “Firefly, F4, 10% FBS, cmpd/DMSO (mean)” value ([1]; 10% FBS, 10 uM) was 7.3. The “Firefly, F4, 10% FBS, cmpd/DMSO (mean)” value ([1]; 10% FBS, 40 uM) was 1.6, the fold induction at 0.5 µM [2, 5] was 1.1 and the fold induction at 2 µM [2, 6] was 1.5. For the same compound, the fold induction at 10 µM [2, 7] was 3.9, the fold induction at 40 µM [2, 8] was 0.6 and the fold induction at 0.5 µM [2, 9] was 1.2. For the same compound, the fold induction at 2 µM [2, 10] was 1.4, the fold induction at 10 µM [2, 11] was 2.4 and the fold induction at 40 µM [2, 12] was 0.7. It also gave a fold induction at 0.5 µM [2, 13] of 1.1, a fold induction at 2 µM [2, 14] of 1.2 and a fold induction at 10 µM [2, 15] of 2.2. For the same compound, the fold induction at 40 µM [2, 16] was 0.5, the fold induction at 0.5 µM [3, 17] was 1.2 and the fold induction at 2 µM [3, 17] was 1.2. The fold induction at 10 µM [3, 17] was 1.6, the fold induction at 40 µM [3, 17] was 0.2 and the fold induction at 0.5 µM [3, 18] was 1.1. It also gave a fold induction at 2 µM [3, 18] of 1.1, a fold induction at 10 µM [3, 18] of 1.8 and a fold induction at 40 µM [3, 18] of 0.4. It also gave a fold induction at 0.5 µM [3, 19] of 1.4, a fold induction at 2 µM [3, 19] of 1.5 and a fold induction at 10 µM [3, 19] of 2.7. The fold induction at 40 µM [3, 19] was 1.3, the “Firefly LBD, cmpd/DMSO (mean)” value ([4]; 0.5 uM) was 1.0 and the “Firefly LBD, cmpd/DMSO (mean)” value ([4]; 2 uM) was 1.5. The “Firefly LBD, cmpd/DMSO (mean)” value ([4]; 10 uM) was 3.4 and the “Firefly LBD, cmpd/DMSO (mean)” value ([4]; 40 uM) was 0.5.

For `COCCCN[C@H]1CS(=O)(=O)C[C@@H]1S(=O)(=O)c1ccc(Cl)cc1` [Compound D126], the “Firefly F4, cmpd/DMSO (mean)” value ([1]; 0.5 uM) was 1.0, the “Firefly F4, cmpd/DMSO (mean)” value ([1]; 2 uM) was 1.8 and the “Firefly F4, cmpd/DMSO (mean)” value ([1]; 10 uM) was 4.5. The “Firefly F4, cmpd/DMSO (mean)” value ([1]; 40 uM) was 2.3, the “F4, Firefly/Renilla for S/B(F4) > 3” value ([1]; 1% FBS, 10 uM) was 2.0 and the “Firefly, F4/pGL4 for S/B(F4) > 3” value ([1]; 1% FBS, 10 uM) was 1.6. For the same compound, the “F4, Firefly/Renilla for S/B(F4) > 3” value ([1]; 10% FBS, 40 uM) was 3.0, the “Firefly, F4/pGL4 for S/B(F4) > 3” value ([1]; 10% FBS, 40 uM) was 2.1 and the “Firefly, F4, 1% FBS, cmpd/DMSO (mean)” value ([1]; 1% FBS, 0.5 uM) was 0.7. The “Firefly, F4, 1% FBS, cmpd/DMSO (mean)” value ([1]; 1% FBS, 2 uM) was 1.5, the “Firefly, F4, 1% FBS, cmpd/DMSO (mean)” value ([1]; 1% FBS, 10 uM) was 3.1 and the “Firefly, F4, 1% FBS, cmpd/DMSO (mean)” value ([1]; 1% FBS, 40 uM) was 0.6. The “Firefly, F4, 10% FBS, cmpd/DMSO (mean)” value ([1]; 10% FBS, 0.5 uM) was 1.4, the “Firefly, F4, 10% FBS, cmpd/DMSO (mean)” value ([1]; 10% FBS, 2 uM) was 1.0 and the “Firefly, F4, 10% FBS, cmpd/DMSO (mean)” value ([1]; 10% FBS, 10 uM) was 2.9. The “Firefly, F4, 10% FBS, cmpd/DMSO (mean)” value ([1]; 10% FBS, 40 uM) was 8.3, the fold induction at 0.5 µM [2, 5] was 1.2 and the fold induction at 2 µM [2, 6] was 1.2. The fold induction at 10 µM [2, 7] was 3, the fold induction at 40 µM [2, 8] was 0.8 and the fold induction at 0.5 µM [2, 9] was 1.4. It also gave a fold induction at 2 µM [2, 10] of 1.8, a fold induction at 10 µM [2, 11] of 2 and a fold induction at 40 µM [2, 12] of 1.6. It also gave a fold induction at 0.5 µM [2, 13] of 1.1, a fold induction at 2 µM [2, 14] of 1.1 and a fold induction at 10 µM [2, 15] of 1.8. It also gave a fold induction at 40 µM [2, 16] of 3.9, a fold induction at 0.5 µM [3, 17] of 1.1 and a fold induction at 2 µM [3, 17] of 1.2. For the same compound, the fold induction at 10 µM [3, 17] was 1.6, the fold induction at 40 µM [3, 17] was 1.6 and the fold induction at 0.5 µM [3, 18] was 1.2. The fold induction at 2 µM [3, 18] was 1.2, the fold induction at 10 µM [3, 18] was 1.5 and the fold induction at 40 µM [3, 18] was 1.8. For the same compound, the fold induction at 0.5 µM [3, 19] was 1, the fold induction at 2 µM [3, 19] was 1.1 and the fold induction at 10 µM [3, 19] was 1.7. The fold induction at 40 µM [3, 19] was 2.8, the “Firefly LBD, cmpd/DMSO (mean)” value ([4]; 0.5 uM) was 1.6 and the “Firefly LBD, cmpd/DMSO (mean)” value ([4]; 2 uM) was 1.5. For the same compound, the “Firefly LBD, cmpd/DMSO (mean)” value ([4]; 10 uM) was 2.9 and the “Firefly LBD, cmpd/DMSO (mean)” value ([4]; 40 uM) was 2.1.

— patent US11377442B2, “Small molecule agonists and antagonists of NR2F6 activity” (ZANDER THERAPEUTICS, INC., priority 2016, dated 2022)
